Measurements published in patent US9469650B2, “Melampomagnolide B derivatives” (BOARD OF TRUSTEES OF THE UNIVERSITY OF ARKANSAS, priority 2013, dated 2016).
Where two headings read alike, the source gives them in different places.

Legend:
NCI-H522 = experiment: panel of 60 human tumor cell lines, growth inhibition (Non-Small Cell Lung Cancer); details: Homo sapiens; for GI50: NCI-H522; for CC50: NCI-H522, read-out: LC50; for IC (TGI): NCI-H522, read-out: TGI
COLO 205 = experiment: panel of 60 human tumor cell lines, growth inhibition (Colon Cancer); details: Homo sapiens; for GI50: COLO 205; for CC50: COLO 205, read-out: LC50; for IC (TGI): COLO 205, read-out: TGI
MDA-MB-435 = experiment: panel of 60 human tumor cell lines, growth inhibition (Melanoma); details: Homo sapiens; for GI50: MDA-MB-435; for CC50: MDA-MB-435, read-out: LC50; for IC (TGI): MDA-MB-435, read-out: TGI
SF-539 = experiment: panel of 60 human tumor cell lines, growth inhibition (CNS Cancer); details: Homo sapiens; for GI50: SF-539; for CC50: SF-539, read-out: LC50; for IC (TGI): SF-539, read-out: TGI
HT29 = experiment: panel of 60 human tumor cell lines, growth inhibition (Colon Cancer); details: for Percent Growth: HT29; for GI50 / CC50 / IC (TGI): Homo sapiens; for GI50: HT-29; for CC50: HT-29, read-out: LC50; for IC (TGI): HT-29, read-out: TGI
HOP-92 = experiment: panel of 60 human tumor cell lines, growth inhibition (Non-Small Cell Lung Cancer); details: Homo sapiens; for CC50: HOP-92, read-out: LC50; for IC (TGI): HOP-92, read-out: TGI
NCI-H460 = experiment: as above; details: Homo sapiens; for GI50: NCI-H460; for CC50: NCI-H460, read-out: LC50; for IC (TGI): NCI-H460, read-out: TGI
MDA-MB-231/ATCC = experiment: panel of 60 human tumor cell lines, growth inhibition (Breast Cancer); details: Homo sapiens; for GI50: MDA-MB-231; for CC50: MDA-MB-231, read-out: LC50; for IC (TGI): MDA-MB-231, read-out: TGI
CCRF-CEM = experiment: panel of 60 human tumor cell lines, growth inhibition (Leukemia); details: Homo sapiens; for CC50: read-out: LC50; for IC (TGI): read-out: TGI
M14 = experiment: panel of 60 human tumor cell lines, growth inhibition (Melanoma); details: Homo sapiens; for GI50: M14; for CC50: M14, read-out: LC50; for IC (TGI): M14, read-out: TGI
NCI-H23 = experiment: panel of 60 human tumor cell lines, growth inhibition (Non-Small Cell Lung Cancer); details: Homo sapiens; for GI50: NCI-H23; for CC50: NCI-H23, read-out: LC50; for IC (TGI): NCI-H23, read-out: TGI
ACHN = experiment: panel of 60 human tumor cell lines, growth inhibition (Renal Cancer); details: Homo sapiens; for CC50: read-out: LC50; for IC (TGI): read-out: TGI
NCI-H226 = experiment: panel of 60 human tumor cell lines, growth inhibition (Non-Small Cell Lung Cancer); details: Homo sapiens; for GI50: NCI-H226; for CC50: NCI-H226, read-out: LC50; for IC (TGI): NCI-H226, read-out: TGI
PC-3 = experiment: panel of 60 human tumor cell lines, growth inhibition (Prostate Cancer); details: Homo sapiens; for GI50: PC-3; for CC50: PC-3, read-out: LC50; for IC (TGI): PC-3, read-out: TGI
HCT-15 = experiment: panel of 60 human tumor cell lines, growth inhibition (Colon Cancer); details: Homo sapiens; for GI50: HCT-15; for CC50: HCT-15, read-out: LC50; for IC (TGI): HCT-15, read-out: TGI
SN12C = experiment: panel of 60 human tumor cell lines, growth inhibition (Renal Cancer); details: Homo sapiens; for CC50: read-out: LC50; for IC (TGI): read-out: TGI
KM12 = experiment: panel of 60 human tumor cell lines, growth inhibition (Colon Cancer)

C=C1C(=O)O[C@H]2[C@H]1CC/C(COC(=O)NCCCCCCO)=C\CC[C@@]1(C)O[C@@H]21 [JVM 2-31] showed a GI50 (NCI-H522) of 1.7 µM, a CC50 (NCI-H522) of 8.15 µM and an IC (TGI) (NCI-H522) of 3.72 µM. The GI50 (COLO 205) was 2.56 µM, the CC50 (COLO 205) was 32 µM and the IC (TGI) (COLO 205) was 6.39 µM. It also gave a GI50 (MDA-MB-435) of 4.45 µM, a CC50 (MDA-MB-435) of 70.9 µM and an IC (TGI) (MDA-MB-435) of 20.2 µM. It also gave a GI50 (SF-539) of 2.42 µM, a CC50 (SF-539) of 34.8 µM and an IC (TGI) (SF-539) of 8.33 µM. For the same molecule, the “Percent Growth” value (HT29; Log10 Concentration −4.0) was −61%, the “Percent Growth” value (HT29; Log10 Concentration −5.0) was 93% and the “Percent Growth” value (HT29; Log10 Concentration −6.0) was 102%. For the same molecule, the “Percent Growth” value (HT29; Log10 Concentration −7.0) was 104%, the “Percent Growth” value (HT29; Log10 Concentration −8.0) was 101% and the GI50 (HT29) was 19 µM. The CC50 (HT29) was 84.8 µM, the IC (TGI) (HT29) was 40.1 µM and the GI50 (HOP-92; HOP-92, HOP-92, NCI five dose) was 2.77 µM. The CC50 (HOP-92) was 38.5 µM, the IC (TGI) (HOP-92) was 9.99 µM and the GI50 (NCI-H460) was 20.3 µM. For the same molecule, the CC50 (NCI-H460) was > 100 µM, the IC (TGI) (NCI-H460) was 51.2 µM and the “Percent Growth” value (HL-60(TB); Log10 Concentration −4.0) was −49%. For the same molecule, the “Percent Growth” value (HL-60(TB); Log10 Concentration −5.0) was 9%, the “Percent Growth” value (HL-60(TB); Log10 Concentration −6.0) was 103% and the “Percent Growth” value (HL-60(TB); Log10 Concentration −7.0) was 107%. For the same molecule, the “Percent Growth” value (HL-60(TB); Log10 Concentration −8.0) was 115%, the GI50 (MDA-MB-231/ATCC) was 8.01 µM and the CC50 (MDA-MB-231/ATCC) was 57.9 µM. For the same molecule, the IC (TGI) (MDA-MB-231/ATCC) was 20.3 µM, the GI50 (CCRF-CEM; NCI five dose) was 2.78 µM and the CC50 (CCRF-CEM) was > 100 µM. It also gave an IC (TGI) (CCRF-CEM) of 10.7 µM, a GI50 (M14) of 4.5 µM and a CC50 (M14) of 46.7 µM. For the same molecule, the IC (TGI) (M14) was 17.4 µM, the GI50 (NCI-H23) was 13.5 µM and the CC50 (NCI-H23) was 72 µM. The IC (TGI) (NCI-H23) was 31.1 µM, the GI50 (ACHN) was 3.21 µM and the CC50 (ACHN) was 49.6 µM. For the same molecule, the IC (TGI) (ACHN) was 13.6 µM, the GI50 (NCI-H226) was 4.92 µM and the CC50 (NCI-H226) was 87.2 µM. It also gave an IC (TGI) (NCI-H226) of 23.9 µM, a GI50 (PC-3) of 13.3 µM and a CC50 (PC-3) of 64.1 µM. The IC (TGI) (PC-3) was 29.2 µM, the GI50 (HCT-15) was 2.56 µM and the CC50 (HCT-15) was 49.5 µM. For the same molecule, the IC (TGI) (HCT-15) was 12.1 µM, the GI50 (SN12C) was 10.4 µM and the CC50 (SN12C) was 69.7 µM. It also gave an IC (TGI) (SN12C) of 27 µM.

In the case of C=C1C(=O)O[C@H]2[C@H]1CC/C(COC(=O)Nc1n[nH]c(SC)n1)=C\CC[C@@]1(C)O[C@@H]21 [JVM 64, ((1aR,7aS,10aS,10bS,E)-1a-methyl-8-methylene-9-oxo-1a,2,3,6,7,7a,8,9,10a,10b-decahydrooxireno[2′,3′:9,10]cyclodeca[1,2-b]furan-5-yl)methyl-(5-(methylthio)-1H-1,2,4-triazol-3-yl)carbamate], the GI50 (NCI-H522) is reported as 1.26 µM, the CC50 (NCI-H522) is reported as 7.87 µM and the IC (TGI) (NCI-H522) is reported as 3.17 µM. It also gave a GI50 (COLO 205) of 1.79 µM, a CC50 (COLO 205) of 7.35 µM and an IC (TGI) (COLO 205) of 3.63 µM. It also gave a GI50 (MDA-MB-435) of 2.24 µM, a CC50 (MDA-MB-435) of 74.8 µM and an IC (TGI) (MDA-MB-435) of 7.13 µM. The GI50 (SF-539) was 1.76 µM, the CC50 (SF-539) was 9.46 µM and the IC (TGI) (SF-539) was 4.08 µM. The GI50 (KM12; Homo sapiens, KM12) was 4.01 µM, the CC50 (KM12; Homo sapiens, KM12, read-out: LC50) was 41.5 µM and the “Percent Growth” value (KM12; KM12, Log10 Concentration −4.0) was −91%. The “Percent Growth” value (KM12; KM12, Log10 Concentration −5.0) was 17%, the “Percent Growth” value (KM12; KM12, Log10 Concentration −6.0) was 101% and the “Percent Growth” value (KM12; KM12, Log10 Concentration −7.0) was 108%. For the same molecule, the “Percent Growth” value (KM12; KM12, Log10 Concentration −8.0) was 104%, the TGI (KM12; KM12, NCI five dose) was 1.43E−5 and the “Percent Growth” value (HT29; Log10 Concentration −4.0) was −79%. For the same molecule, the “Percent Growth” value (HT29; Log10 Concentration −5.0) was −11%, the “Percent Growth” value (HT29; Log10 Concentration −6.0) was 92% and the “Percent Growth” value (HT29; Log10 Concentration −7.0) was 101%. For the same molecule, the “Percent Growth” value (HT29; Log10 Concentration −8.0) was 102%, the GI50 (HT29) was 2.55 µM and the CC50 (HT29) was 37.4 µM. For the same molecule, the IC (TGI) (HT29) was 7.77 µM, the GI50 (HOP-92; HOP-92, HOP-92, 5-dose assay) was 0.65 µM and the GI50 (HOP-92; HOP-92, HOP-92, NCI five dose) was 0.655 µM. For the same molecule, the GI50 (HOP-92; HOP-92, non-small cell lung cancer cell line HOP-92) was 0.65 µM, the CC50 (HOP-92) was 20.4 µM and the IC (TGI) (HOP-92) was 3.84 µM. The GI50 (NCI-H460) was 4.03 µM, the CC50 (NCI-H460) was > 100 µM and the IC (TGI) (NCI-H460) was 18.9 µM. It also gave a GI50 (MDA-MB-231/ATCC) of 2.93 µM, a CC50 (MDA-MB-231/ATCC) of 37.7 µM and an IC (TGI) (MDA-MB-231/ATCC) of 9.22 µM. It also gave a GI50 (CCRF-CEM; 5-dose assay) of 0.62 µM, a GI50 (CCRF-CEM; NCI five dose) of 0.626 µM and a GI50 (CCRF-CEM; leukemia cell line CCRF-CEM) of 0.62 µM. It also gave a CC50 (CCRF-CEM) of 55.8 µM, an IC (TGI) (CCRF-CEM) of 3.56 µM and a GI50 (M14) of 1.59 µM. For the same molecule, the CC50 (M14) was 7.09 µM, the IC (TGI) (M14) was 3.36 µM and the GI50 (NCI-H23) was 3.21 µM. It also gave a CC50 (NCI-H23) of 63.6 µM, an IC (TGI) (NCI-H23) of 14.1 µM and a GI50 (ACHN) of 1.75 µM. It also gave a CC50 (ACHN) of 17.8 µM, an IC (TGI) (ACHN) of 4.89 µM and a GI50 (NCI-H226) of 10.2 µM. It also gave a CC50 (NCI-H226) of 99.7 µM, an IC (TGI) (NCI-H226) of 31.9 µM and a GI50 (PC-3) of 8.51 µM. It also gave a CC50 (PC-3) of 77 µM, an IC (TGI) (PC-3) of 26.8 µM and a GI50 (HCT-15) of 2.4 µM. The CC50 (HCT-15) was 38 µM, the IC (TGI) (HCT-15) was 9.05 µM and the GI50 (SN12C) was 2.9 µM. It also gave a CC50 (SN12C) of 44.6 µM and an IC (TGI) (SN12C) of 10.7 µM.
